# Data from ChEMBL document CHEMBL2074356, “Direct evidence for peptide transporter (PepT1)-mediated uptake of a nonpeptide prodrug, valacyclovir” (Biochem Biophys Res Commun, 1998).
# Non-standard residues stand in square brackets, D forms with d. Residues, ends and D or L forms follow the SMILES beside them. Sar = CNCC(=O)O
# T1: Solute carrier family 15 member 1 (Homo sapiens) (UniProt P46059)
# T1 sequence (whole entry): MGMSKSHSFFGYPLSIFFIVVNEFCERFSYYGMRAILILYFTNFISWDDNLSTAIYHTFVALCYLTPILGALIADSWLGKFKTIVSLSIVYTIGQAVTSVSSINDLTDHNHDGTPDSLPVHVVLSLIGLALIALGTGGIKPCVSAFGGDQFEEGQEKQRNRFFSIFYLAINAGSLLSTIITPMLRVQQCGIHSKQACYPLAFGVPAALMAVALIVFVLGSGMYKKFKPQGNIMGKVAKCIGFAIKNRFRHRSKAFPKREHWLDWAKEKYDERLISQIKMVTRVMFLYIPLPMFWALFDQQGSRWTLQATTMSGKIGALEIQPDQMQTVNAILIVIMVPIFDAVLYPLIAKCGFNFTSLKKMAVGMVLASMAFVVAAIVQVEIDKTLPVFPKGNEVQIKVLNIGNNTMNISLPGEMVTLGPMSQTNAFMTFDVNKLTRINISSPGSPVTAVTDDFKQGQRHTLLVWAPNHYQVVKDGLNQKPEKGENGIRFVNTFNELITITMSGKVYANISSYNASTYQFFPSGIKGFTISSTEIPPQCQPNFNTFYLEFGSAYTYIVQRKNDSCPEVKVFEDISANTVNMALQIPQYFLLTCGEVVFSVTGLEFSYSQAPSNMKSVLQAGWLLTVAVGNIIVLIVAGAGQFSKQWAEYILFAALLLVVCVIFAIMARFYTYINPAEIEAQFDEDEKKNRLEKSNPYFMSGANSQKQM
# T2: Solute carrier family 15 member 1 (Homo sapiens, UniProt P46059)
# T2 sequence (P46059 whole entry): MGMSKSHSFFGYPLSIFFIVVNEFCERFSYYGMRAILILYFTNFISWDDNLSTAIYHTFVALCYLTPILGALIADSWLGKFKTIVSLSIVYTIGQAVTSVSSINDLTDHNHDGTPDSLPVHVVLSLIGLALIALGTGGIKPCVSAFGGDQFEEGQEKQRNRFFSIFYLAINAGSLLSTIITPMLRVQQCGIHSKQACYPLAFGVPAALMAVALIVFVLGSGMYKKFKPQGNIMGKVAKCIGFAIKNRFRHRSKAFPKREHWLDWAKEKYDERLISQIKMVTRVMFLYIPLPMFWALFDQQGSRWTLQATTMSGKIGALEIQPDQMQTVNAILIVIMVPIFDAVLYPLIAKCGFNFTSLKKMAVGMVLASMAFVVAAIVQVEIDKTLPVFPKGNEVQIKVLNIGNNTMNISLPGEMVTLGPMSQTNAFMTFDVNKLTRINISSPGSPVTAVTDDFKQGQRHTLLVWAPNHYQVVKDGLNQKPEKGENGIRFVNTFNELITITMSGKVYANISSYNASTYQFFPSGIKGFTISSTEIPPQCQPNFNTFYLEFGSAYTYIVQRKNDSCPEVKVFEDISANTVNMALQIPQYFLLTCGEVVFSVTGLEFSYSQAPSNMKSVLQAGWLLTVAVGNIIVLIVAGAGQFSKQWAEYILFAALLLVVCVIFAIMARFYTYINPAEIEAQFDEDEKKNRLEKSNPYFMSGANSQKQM
# Key:
# [1] = target: T1, Solute carrier family 15 member 1 (Homo sapiens); experiment: TP_TRANSPORTER: inhibition of VACV uptake (VACV: 0.2 uM, Carnosine: 10000 uM) in Xenopus laevis oocytes; format: functional, cell-based; conditions: Oocyte
# [2] = target: T1, Solute carrier family 15 member 1 (Homo sapiens); experiment: TP_TRANSPORTER: inhibition of VACV uptake (VACV: 0.2 uM, Gly-Sar: 10000 uM) in Xenopus laevis oocytes; format: functional, cell-based; conditions: Oocyte
# [3] = target: T1, Solute carrier family 15 member 1 (Homo sapiens); experiment: TP_TRANSPORTER: inhibition of VACV uptake (VACV: 0.2 uM, Gly-Gly-Gly: 10000 uM) in Xenopus laevis oocytes; format: functional, cell-based; conditions: Oocyte
# [4] = target: T2, Solute carrier family 15 member 1; experiment: TP_TRANSPORTER: inhibition of Gly-Sar uptake in Xenopus laevis oocytes; format: functional, cell-based, Oocyte
# [5] = substrate: CC(C)[C@H](N)C(=O)OCCOCn1cnc2c(=O)nc(N)[nH]c21; conditions: Xenopus laevis; Oocyte
molecule,measurement,setting,value
NCCC(=O)N[C@@H](Cc1c[nH]cn1)C(=O)O,Activity,[1],inhibitor [70% (at a rough estimate) of control]
CN(CC(=O)O)C(=O)CN (H-Gly-[Sar]-OH),Activity,[2],inhibitor [55% (at a rough estimate) of control]
NCC(=O)NCC(=O)NCC(=O)O,Activity,[3],inhibitor [55% (at a rough estimate) of control]
CC(C)[C@H](N)C(=O)OCCOCn1cnc2c(=O)[nH]c(N)nc21 [VALACYCLOVIR],Ki,[4],4.08 mM
"Solute carrier family 15 member 1 (Homo sapiens), P46059 (protein) MGMSKSHSFFGYPLSIFFIVVNEFCERFSYYGMRAILILYFTNFISWDDNLSTAIYHTFVALCYLTPILGALIADSWLGKFKTIVSLSIVYTIGQAVTSVSSINDLTDHNHDGTPDSLPVHVVLSLIGLALIALGTGGIKPCVSAFGGDQFEEGQEKQRNRFFSIFYLAINAGSLLSTIITPMLRVQQCGIHSKQACYPLAFGVPAALMAVALIVFVLGSGMYKKFKPQGNIMGKVAKCIGFAIKNRFRHRSKAFPKREHWLDWAKEKYDERLISQIKMVTRVMFLYIPLPMFWALFDQQGSRWTLQATTMSGKIGALEIQPDQMQTVNAILIVIMVPIFDAVLYPLIAKCGFNFTSLKKMAVGMVLASMAFVVAAIVQVEIDKTLPVFPKGNEVQIKVLNIGNNTMNISLPGEMVTLGPMSQTNAFMTFDVNKLTRINISSPGSPVTAVTDDFKQGQRHTLLVWAPNHYQVVKDGLNQKPEKGENGIRFVNTFNELITITMSGKVYANISSYNASTYQFFPSGIKGFTISSTEIPPQCQPNFNTFYLEFGSAYTYIVQRKNDSCPEVKVFEDISANTVNMALQIPQYFLLTCGEVVFSVTGLEFSYSQAPSNMKSVLQAGWLLTVAVGNIIVLIVAGAGQFSKQWAEYILFAALLLVVCVIFAIMARFYTYINPAEIEAQFDEDEKKNRLEKSNPYFMSGANSQKQM",Km,[5],5.94 mM
